Results from ChEMBL document CHEMBL1145233, “Design, synthesis and evaluation of 5-substituted amino-2,4-diamino-8-chloropyrimido-[4,5-b]quinolines as novel antimalarials” (2005).

Key:
Type in all cases: functional
Mus musculus [1] = experiment: In vivo antimalarial activity of compound against Plasmodium berghei in mice (Mus musculus) expressed as mean survival time at 80 mg/kg
Mus musculus [2] = experiment: In vivo antimalarial activity of compound against Plasmodium berghei in mice (Mus musculus) expressed as mean survival time at 160 mg/kg
Mus musculus [3] = experiment: In vivo antimalarial activity of compound against Plasmodium berghei in mice (Mus musculus) expressed as mean survival time at 20 mg/kg
Mus musculus [4] = experiment: In vivo antimalarial activity of compound against Plasmodium berghei in mice (Mus musculus) expressed as mean survival time at 40 mg/kg

Question: With Nc1nc(N)c2c(Nc3cc(CN4CCCC4)c(O)c(CN4CCCC4)c3)c3ccc(Cl)cc3nc2n1 as the molecule, how does the Survival time (Mus musculus [1]) read?
Answer: Its Survival time is greater than 60 days.

Question: And the Survival time (Mus musculus [2])?
Answer: Its Survival time is greater than 60 days.

Question: What about the Survival time (Mus musculus [3]) of the same molecule?
Answer: Its Survival time is greater than 60 days.

Question: What about the Survival time (Mus musculus [4]) of the same molecule?
Answer: The Survival time was greater than 60 days.

Question: Which Survival time (Mus musculus [1]) does the source give for CN(COOC(C)(C)C)c1c2ccc(Cl)cc2nc2nc(N)nc(N)c12 here?
Answer: Its Survival time is 20 days.

Question: And the Survival time (Mus musculus [2])?
Answer: Its Survival time is 14 days.

Question: What about the Survival time (Mus musculus [3]) of the same molecule?
Answer: The Survival time was 28 days.

Question: What about the Survival time (Mus musculus [4]) of the same molecule?
Answer: Its Survival time is 30 days.

Question: Nc1nc(N)c2c(Nc3ccc(S(N)(=O)=O)cc3)c3ccc(Cl)cc3nc2n1 was tested. Which Survival time (Mus musculus [1]) did it give?
Answer: Its Survival time is 15 days.

Question: And the Survival time (Mus musculus [2])?
Answer: Its Survival time is 14 days.

Question: What about the Survival time (Mus musculus [3]) of the same molecule?
Answer: Its Survival time is 12 days.

Question: And the Survival time (Mus musculus [4])?
Answer: The Survival time was 13 days.

Question: For CCN(CC)c1cc(Nc2c3ccc(Cl)cc3nc3nc(N)nc(N)c23)cc(N(CC)CC)c1O, which Survival time (Mus musculus [1]) is on record?
Answer: The Survival time was greater than 60 days.

Question: And the Survival time (Mus musculus [2])?
Answer: Its Survival time is greater than 60 days.

Question: And the Survival time (Mus musculus [3])?
Answer: Its Survival time is greater than 60 days.

Question: And the Survival time (Mus musculus [4])?
Answer: The Survival time was greater than 60 days.

Question: Which results are given for Nc1nc(N)c2c(N)c3ccc(Cl)cc3nc2n1?
Answer: Survival time (Mus musculus [1]): 18 days; Survival time (Mus musculus [2]): 20 days; Survival time (Mus musculus [3]): 15 days; Survival time (Mus musculus [4]): 16 days

Question: How did the Survival time (Mus musculus [1]) turn out when CCN(COOC(C)(C)C)c1c2ccc(Cl)cc2nc2nc(N)nc(N)c12 was run?
Answer: The Survival time was 14 days.

Question: What about the Survival time (Mus musculus [2]) of the same molecule?
Answer: The Survival time was 15 days.

Question: And the Survival time (Mus musculus [3])?
Answer: Its Survival time is 13 days.

Question: What about the Survival time (Mus musculus [4]) of the same molecule?
Answer: The Survival time was 12 days.

Question: Which results are given for Nc1nc(N)c2c(Nc3ccc(S(=O)(=O)Nc4ccccn4)cc3)c3ccc(Cl)cc3nc2n1?
Answer: Survival time (Mus musculus [1]): 15 days; Survival time (Mus musculus [2]): 13 days; Survival time (Mus musculus [3]): 11 days; Survival time (Mus musculus [4]): 14 days

Question: With Nc1nc(N)c2c(Nc3ccc(O)c(CN4CCCC4)c3)c3ccc(Cl)cc3nc2n1 as the molecule, how does the Survival time (Mus musculus [1]) read?
Answer: Its Survival time is 25 days.

Question: What about the Survival time (Mus musculus [2]) of the same molecule?
Answer: The Survival time was 26 days.

Question: What about the Survival time (Mus musculus [3]) of the same molecule?
Answer: The Survival time was 15 days.

Question: What about the Survival time (Mus musculus [4]) of the same molecule?
Answer: Its Survival time is 20 days.

Question: Which results are given for COc1ncnc(NS(=O)(=O)c2ccc(Nc3c4ccc(Cl)cc4nc4nc(N)nc(N)c34)cc2)c1OC?
Answer: Survival time (Mus musculus [1]): >60 days; Survival time (Mus musculus [2]): >60 days; Survival time (Mus musculus [3]): >60 days; Survival time (Mus musculus [4]): >60 days

Question: What does the source list for CCN(CC)c1cc(Nc2c3ccc(Cl)cc3nc3nc(N)nc(N)c23)ccc1O?
Answer: Survival time (Mus musculus [1]): 15 days; Survival time (Mus musculus [2]): 14 days; Survival time (Mus musculus [3]): 12 days; Survival time (Mus musculus [4]): 13 days

Question: Which Survival time (Mus musculus [3]) does the source give for CCN(CC)CCCC(C)Nc1ccnc2cc(Cl)ccc12 (stereo unspecified) [CHLOROQUINE] here?
Answer: The Survival time was 15 days.
